From US10112918B2, “15-oxospiramilactone derivatives, preparation method and uses thereof” (Kunming Institute of Botany, The Chinese Academy of Sciences, priority 2013, dated 2018) come the findings set out here.

For orientation: IC50 means the concentration needed to halve the response being measured.

What all share (assay type): cell-based
The subject of assay [1] is SW-480 (human colon cancer cells). The experiment in a line: MTT inhibition of tumor cell growth, SW-480. The method, then: (§1) 1. Inoculating cells: the culture medium DMEM or RMPI1640 containing 10% fetal bovine serum was used to prepare a single cell suspension, and the cell suspension was inoculated to a 96-well plate at 5000-10000 cells per well (100 μl for each well); Adherent cells were inoculated and cultured for 12 h in advance. HL-60 (human promyelocytic leukemia cells), SMMC-7721 (human hepatoma cells), A-549 (Human lung adenocarcinoma cells), MCF-7 (human breast cancer cells), SW-480 (human colon cancer cells) were purchased from the Cell Bank of the Chinese Academy of Sciences, Shanghai.
(§2) 2. The solution of the compound to be tested (40 μM for primary screening; 5 concentrations were set for gradient re-screening for the compounds which achieve about 50% inhibition of tumor cell growth at 40 μM) was added, the final volume of each well was 200 μl, and triplicate wells were set for each test.
(§3) 3. Coloration: After culturing at 37° C. for 48 h, MTT solution (20 μl) was added to each well. After incubation for another 4 h, the culture was stopped. The supernatant in each well was pipetted and discarded, and 200 μl SDS solution (10%) was added to each well. Incubation was performed overnight (at 37° C.), to completely dissolve the crystal.
(§4) 4. Colorimetric assay: ELISA Reader (Bio-Rad 680) was used to obtain the light absorption for each well at a wavelength of 595 nm, the results were recorded. A cell growth curve was plotted with the concentration as abscissa and the cell survival percentage as ordinate. The two-point method (Reed and Muench method) was used to calculate the IC50 of the compound.

Assay [2] concerns HL-60 (human promyelocytic leukemia cells). Briefly: MTT inhibition of tumor cell growth, HL-60. The method, then: as §1, §2, §3, §4
The subject of assay [3] is A-549 (Human lung adenocarcinoma cells). The experiment in a line: MTT inhibition of tumor cell growth, A-549. On the procedure: as §1, §2, §3, §4
In assay [4] the test system is MCF-7 (human breast cancer cells). The experiment in a line: MTT inhibition of tumor cell growth, MCF-7. On the procedure:
as §1, §2, §3, §4

Assay [5] deals with SMMC-7721 (human hepatoma cells). Briefly: MTT inhibition of tumor cell growth, SMMC-7721. The method, then:
as §1, §2, §3, §4

[6] abbreviates: Homo sapiens, SW480, 48 h, Table 6, 7-carbonyl derivatives, read-out: IC50 SW-480, 7-carbonyl derivatives.
The mark [7] stands for this setting: Homo sapiens, SW480, 48 h, Table 6, 7-hydroxyl derivatives and controls, read-out: IC50 SW-480, 7-hydroxyl derivatives.
[8] abbreviates: Homo sapiens, SW480, 48 h, Table 6, double Michael reaction acceptor derivatives, read-out: IC50 SW-480, derivatives having double Michael reaction acceptor.
[9] abbreviates: Homo sapiens, HL-60, 48 h, Table 7 (first), alkaloid derivatives.
[10] abbreviates: Homo sapiens, A549, 48 h, Table 7 (first), alkaloid derivatives.
The mark [11] stands for this setting: Homo sapiens, MCF7, 48 h, Table 7 (first), alkaloid derivatives.
Where [12] appears, read: Homo sapiens, SW480, 48 h, Table 7 (first), alkaloid derivatives, read-out: IC50 SW-480.
Setting [13] is: Homo sapiens, SMMC-7721, 48 h, Table 7 (first), alkaloid derivatives.
The mark [14] stands for this setting: Table 1, 7-hydroxy derivatives of S-3, 48 h.
Setting [15] is: Table 2, derivatives having potential Michael reaction acceptor, 48 h.
The mark [16] stands for this setting: Table 3, single Michael reaction acceptor, modified lactonic ring, 48 h.
Where [17] appears, read: Table 4, derivatives obtained by reduction of the lactonic ring, 48 h.
The mark [18] stands for this setting: Table 5, derivatives having double Michael reaction acceptor, 48 h.
Setting [19] is: Table 7 (first), alkaloid derivatives, 48 h.

Read-outs that look alike come from different tables or passages of the source.

Take `C=C1C(=O)C23CC[C@H]1CC2[C@@]12CCC[C@@](C)(COS(=O)OC1)C2CC3=O` (stereo partly drawn) [Compound 42]: in assay [1] (setting [6]), the IC50 came out at 1830 nM.
`C=C1C(=O)C23CC[C@H]1CC2[C@]1(COC(=O)c2cccs2)CCC[C@@](C)(COC(=O)c2cccs2)C1C[C@H]3O` (stereo partly drawn) [Compound 63]: the IC50 in assay [1] (setting [7]) was 2970 nM.
On the same count and under the same terms, as for `C=C1C(=O)C23CC[C@H]1CC2[C@]1(COC(C)=O)CCC[C@@](C)(COC(=O)c2cccs2)C1C[C@H]3O` (stereo partly drawn) [Compound 70], the figure is 1690 nM; as for `C=C1C(=O)C23CC[C@H]1CC2[C@]1(COC(=O)CC)CCC[C@@](C)(COC(=O)CC)C1C[C@H]3O` (stereo partly drawn) [Compound 72c], 810 nM.
On the same count and under the same terms, the figure for `C=C1C(=O)C23CC[C@H]1CC2[C@]1(COC(=O)c2ccccc2)CCC[C@@](C)(COC(=O)c2ccccc2)C1C[C@H]3O` (stereo partly drawn) [Compound 72d] is 520 nM.
For `C=C1C(=O)C23CC[C@H]1CC2[C@]1(COC(=O)CC)CCC[C@@](C)(COC(=O)CC)C1CC3=O` (stereo partly drawn) [Compound 73c], the IC50 in assay [1] (setting [6]) stood at 690 nM.
Still for that read-out and setting: the figure for `C=C1C(=O)C23CC[C@H]1CC2[C@]1(COC(=O)c2ccccc2)CCC[C@@](C)(COC(=O)c2ccccc2)C1CC3=O` (stereo partly drawn) [Compound 73d] is 620 nM.
In the case of `C=C1C(=O)C23CC[C@@H](CC2[C@]2(COC(=O)CC)CCC[C@@](C)(COC(=O)CC)C12)C(=C)C3=O` (stereo partly drawn) [Compound 74c], in assay [1] (setting [8]), the half-maximal inhibitory concentration (IC50) is 330 nM.
Regarding `C=C1C(=O)C23CC[C@@H](CC2[C@]2(COC(=O)c4ccccc4)CCC[C@@](C)(COC(=O)c4ccccc4)C12)C(=C)C3=O` (stereo partly drawn) [Compound 74d], the IC50 in assay [1] (setting [8]) was 150 nM.
For the compound `C=C1C(=O)[C@]23CC[C@H]1CC2[C@@]12CCC[C@@]4(C)CN(CCO)[C@@H]1O[C@@H]3CC42` (stereo partly drawn) [Compound 82], the IC50 in assay [2] (Homo sapiens, HL-60, Table 7 (first), alkaloid derivatives, 48 h) was 19300 nM; in assay [3] (Homo sapiens, A549, Table 7 (first), alkaloid derivatives, 48 h), 18600 nM; in assay [4] (Homo sapiens, MCF7, Table 7 (first), alkaloid derivatives, 48 h), 10400 nM; in assay [1] (Homo sapiens, SW480, Table 7 (first), alkaloid derivatives, 48 h, read-out: IC50 SW-480) it was 14000 nM; in assay [5] (Homo sapiens, SMMC-7721, Table 7 (first), alkaloid derivatives, 48 h) it was 23600 nM.
On to `C=C1C(=O)[C@@]23CC[C@@H](CC2[C@@]24CCC[C@@](C)(CN(CCO[Si](C)(C)C(C)(C)C)C2)C14)C(=C)C3=O` (stereo partly drawn) [Compound 92], for which the IC50 in assay [2] (setting [9]) amounted to 1390 nM; in assay [3] (setting [10]), 1550 nM; in assay [4] (setting [11]) it was 2900 nM; in assay [1] (setting [12]) it was 2780 nM; in assay [5] (setting [13]), 2630 nM.
With `CC(=O)O[C@H]1C(=O)[C@@]2(C)[C@H]([C@H](OC(=O)c3ccccc3)[C@]3(O)C[C@H](OC(=O)[C@H](O)[C@@H](NC(=O)c4ccccc4)c4ccccc4)C(C)=C1C3(C)C)[C@]1(OC(C)=O)CO[C@@H]1C[C@@H]2O` [TAXOL, reference compound], the concentration for half-maximal inhibition (IC50) was less than 8 nM in assay [2] (Homo sapiens, HL-60, 48 h, Table 1, 7-hydroxy derivatives of S-3); less than 8 nM in assay [2] (Homo sapiens, HL-60, 48 h, Table 2, derivatives having potential Michael reaction acceptor); less than 8 nM in assay [2] (Homo sapiens, HL-60, 48 h, Table 3, single Michael reaction acceptor, modified lactonic ring); less than 8 nM in assay [2] (Homo sapiens, HL-60, 48 h, Table 4, derivatives obtained by reduction of the lactonic ring); less than 8 nM in assay [2] (Homo sapiens, HL-60, 48 h, Table 5, derivatives having double Michael reaction acceptor); less than 8 nM in assay [2] (setting [9]). Further, the IC50 in assay [3] (Homo sapiens, A549, 48 h, Table 1, 7-hydroxy derivatives of S-3) is less than 8 nM; in assay [3] (Homo sapiens, A549, 48 h, Table 2, derivatives having potential Michael reaction acceptor) it was less than 8 nM; in assay [3] (Homo sapiens, A549, 48 h, Table 3, single Michael reaction acceptor, modified lactonic ring) it was less than 8 nM; in assay [3] (Homo sapiens, A549, 48 h, Table 4, derivatives obtained by reduction of the lactonic ring), less than 8 nM; in assay [3] (Homo sapiens, A549, 48 h, Table 5, derivatives having double Michael reaction acceptor), less than 8 nM; in assay [3] (setting [10]), less than 8 nM. The IC50 in assay [4] (Homo sapiens, MCF7, 48 h, Table 1, 7-hydroxy derivatives of S-3) was less than 8 nM; in assay [4] (Homo sapiens, MCF7, 48 h, Table 2, derivatives having potential Michael reaction acceptor), less than 8 nM; in assay [4] (Homo sapiens, MCF7, 48 h, Table 3, single Michael reaction acceptor, modified lactonic ring), less than 8 nM; in assay [4] (Homo sapiens, MCF7, 48 h, Table 4, derivatives obtained by reduction of the lactonic ring) it was less than 8 nM; in assay [4] (Homo sapiens, MCF7, 48 h, Table 5, derivatives having double Michael reaction acceptor), less than 8 nM; in assay [4] (setting [11]), less than 8 nM. The concentration for half-maximal inhibition (IC50) was less than 8 nM in assay [1] (Homo sapiens, SW480, 48 h, Table 1, 7-hydroxy derivatives of S-3, read-out: IC50 SW-480); less than 8 nM in assay [1] (Homo sapiens, SW480, 48 h, Table 2, derivatives having potential Michael reaction acceptor, read-out: IC50 SW-480); less than 8 nM in assay [1] (Homo sapiens, SW480, 48 h, Table 3, single Michael reaction acceptor, modified lactonic ring, read-out: IC50 SW-480); less than 8 nM in assay [1] (Homo sapiens, SW480, 48 h, Table 4, derivatives obtained by reduction of the lactonic ring, read-out: IC50 SW-480); less than 8 nM in assay [1] (Homo sapiens, SW480, 48 h, Table 5, derivatives having double Michael reaction acceptor, read-out: IC50 SW-480); less than 8 nM in assay [1] (setting [7]). Further, the IC50 is less than 8 nM in assay [1] (setting [12]); less than 8 nM in assay [5] (Homo sapiens, SMMC-7721, 48 h, Table 1, 7-hydroxy derivatives of S-3); less than 8 nM in assay [5] (Homo sapiens, SMMC-7721, 48 h, Table 2, derivatives having potential Michael reaction acceptor); less than 8 nM in assay [5] (Homo sapiens, SMMC-7721, 48 h, Table 3, single Michael reaction acceptor, modified lactonic ring); less than 8 nM in assay [5] (Homo sapiens, SMMC-7721, 48 h, Table 4, derivatives obtained by reduction of the lactonic ring); less than 8 nM in assay [5] (Homo sapiens, SMMC-7721, 48 h, Table 5, derivatives having double Michael reaction acceptor). The compound further registered a concentration for half-maximal inhibition (IC50) in assay [5] (setting [13]) of less than 8 nM.
As to `[NH2][Pt]([NH2])([Cl])[Cl]` [cis-DDP, reference compound], the 50% inhibitory concentration (IC50) in assay [2] (setting [14]) worked out at 1810 nM; in assay [2] (setting [15]), 1810 nM; in assay [2] (setting [16]), 1810 nM; in assay [2] (setting [17]), 1810 nM; in assay [2] (setting [18]), 1810 nM; in assay [2] (setting [19]), 3080 nM. Besides, the IC50 in assay [3] (setting [14]) was 11700 nM; in assay [3] (setting [15]), 11700 nM; in assay [3] (setting [16]), 11700 nM; in assay [3] (setting [17]), 11700 nM; in assay [3] (setting [18]) it was 11700 nM; in assay [3] (setting [19]), 9080 nM. The IC50 in assay [4] (setting [14]) amounted to 15900 nM; in assay [4] (setting [15]), 15900 nM; in assay [4] (setting [16]) it was 15900 nM; in assay [4] (setting [17]) it was 15900 nM; in assay [4] (setting [18]), 15900 nM; in assay [4] (setting [19]) it was 17500 nM. Moreover, the IC50 in assay [1] (Table 1, 7-hydroxy derivatives of S-3, 48 h, read-out: IC50 SW-480) was 16600 nM; in assay [1] (Table 2, derivatives having potential Michael reaction acceptor, 48 h, read-out: IC50 SW-480) it was 16600 nM; in assay [1] (Table 3, single Michael reaction acceptor, modified lactonic ring, 48 h, read-out: IC50 SW-480), 16600 nM; in assay [1] (Table 4, derivatives obtained by reduction of the lactonic ring, 48 h, read-out: IC50 SW-480), 16600 nM; in assay [1] (Table 5, derivatives having double Michael reaction acceptor, 48 h, read-out: IC50 SW-480) it was 16600 nM; in assay [1] (Table 6, 7-hydroxyl derivatives and controls, 48 h, read-out: IC50 SW-480, 7-hydroxyl derivatives) it was 11100 nM. In addition, the IC50 in assay [1] (Table 7 (first), alkaloid derivatives, 48 h, read-out: IC50 SW-480) amounted to 12000 nM; in assay [5] (setting [14]) it was 8860 nM; in assay [5] (setting [15]) it was 8860 nM; in assay [5] (setting [16]), 8860 nM; in assay [5] (setting [17]), 8860 nM; in assay [5] (setting [18]), 8860 nM. Further, the midpoint of inhibition in assay [5] (setting [19]), the IC50, lay at 10200 nM.
